The values that follow come from patent US8318785B2, “Pharmaceutical compounds” (Orion Corporation, priority 2005, dated 2012).

The target in data set [1] is T1, recombinant human soluble form of COMT (hS-COMT) (Homo sapiens, UniProt P21964).
T1 sequence (P21964 1-221 isoform P21964-2): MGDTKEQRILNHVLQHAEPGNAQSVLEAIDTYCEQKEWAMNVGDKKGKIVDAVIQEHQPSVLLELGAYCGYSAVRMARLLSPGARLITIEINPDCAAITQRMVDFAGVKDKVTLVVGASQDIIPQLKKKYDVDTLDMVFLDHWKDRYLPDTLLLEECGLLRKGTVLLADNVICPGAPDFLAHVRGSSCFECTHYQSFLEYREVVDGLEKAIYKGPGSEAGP
The data set is described as follows: Determination of COMT inhibiting activity in vitro. The class given is biochemical. The settings on record: tight binding inhibition constant, 25 μM SAM, substrate esculetin 10 μM, pH 7.4, 37° C.

A short description of data set [2]: Determination of metabolic stability in vitro (glucuronidation). Type of data set: in vitro ADME. The settings on record: entacapone = 1.00; human liver microsomes 0.4 mg/ml, UDPGA 5 mM, test substance 100 μM, 60 min at 37° C.; glucuronide HPLC area relative to entacapone.
Data set [3] has as its system isolated rat liver mitochondria. The data set is described as follows: Determination of uncoupling of oxidative phosphorylation in vitro. The settings on record: threshold value of uncoupling (sample/Control slope ratio exceeding 2); oxygen consumption of rat liver mitochondria; tested 1-50 μM.

What is called Ki is the dissociation constant of the complex between target and ligand, obtained from inhibition or displacement. For the molecule `O=[N+]([O-])c1c(O)c(O)cc2c(Cl)csc12` [Compound of example 7, 3-Chloro-5,6-dihydroxy-7-nitro-benzo[b]thiophene], in data set [1], the inhibition constant Ki came to 1.5 nM.

With `O=C(c1sc2c([N+](=O)[O-])c(O)c(O)cc2c1Cl)N1CCOCC1` [Compound of example 8, (3-Chloro-5,6-dihydroxy-7-nitro-benzo[b]thiophen-2-yl)-morpholin-4-yl-methanone], the Ki in data set [1] worked out at 0.6 nM. As for `O=C(c1cc2cc(O)c(O)c([N+](=O)[O-])c2s1)N1CCOCC1` [Compound of example 16, (5,6-Dihydroxy-7-nitro-benzo[b]thiophen-2-yl)-morpholin-4-yl-methanone], the Relative glucuronidation in data set [2] is less than 0.01. In addition, in data set [1], the inhibitory constant (Ki) amounted to 0.9 nM.

`O=C1OCc2c1cc(O)c(O)c2[N+](=O)[O-]` [Compound of example 23, 5,6-Dihydroxy-4-nitro-3H-isobenzofuran-1-one] returned a Relative glucuronidation in data set [2] of 0.26. Besides, the Ki in data set [1] was 2 nM. Take `O=[N+]([O-])c1ccc(O)c([N+](=O)[O-])c1` [DNP, dinitrophenol]: the Uncoupling in data set [3] stood at 10 µM.

Turning to `O=C(O)c1ccc(NC(=O)c2sc3c([N+](=O)[O-])c(O)c(O)cc3c2Cl)cc1` [Compound of example 13, 4-[(3-Chloro-5,6-dihydroxy-7-nitro-benzo[b]thiophene-2-carbonyl)-amino]-benzoic acid], the Ki in data set [1] was 0.2 nM.

Take `O=C(O)c1cccc(NC(=O)c2sc3c([N+](=O)[O-])c(O)c(O)cc3c2Cl)c1` [Compound of example 12, 3-[(3-Chloro-5,6-dihydroxy-7-nitro-benzo[b]thiophene-2-carbonyl)-amino]-benzoic acid]: the Relative glucuronidation in data set [2] is listed as 0.03. In data set [1], the Ki stood at 0.6 nM. Regarding `CCOC(=O)c1sc2c([N+](=O)[O-])c(O)c(O)cc2c1Cl` [Compound of example 5, 3-Chloro-5,6-dihydroxy-7-nitro-benzo[b]thiophene-2-carboxylic acid ethyl ester], the inhibitory constant (Ki) in data set [1] is 1.5 nM.
